Tested on: HEK293FT cells
Assay: pEGFP-N3 polyplex transfection of HEK293FT cells, live cell imaging
Format: cell-based
Protocol: Spectrophotometry: Concentrations were determined using either a Thermo Nanodrop 2000 spectrometer or Perkin Elmer Lambda 365 Spectrophotometer. DLS measurements: DLS measurements were performed on a Malvern Nano ZS (Malvern Instruments, U.K.), operating at 633 nm with a 173° scattering angle, at 25 or 37° C. DLS mean diameters were obtained from the intensity particle size distribution provided by Malvern Zetasizer Software. DLS histograms were obtained from the intensity particle size distributions. Zeta-potential: The zeta-potential values of the polyplexes were obtained by laser doppler anemometry (LDA), measuring the mean electrophoretic mobility (Malvern Zetasizer Nano ZS, Malvern Instruments, U.K.). Measurements were performed in 10 mM HEPES pH 7.1, 150 mM NaCl. TEM measurements: TEM measurements were performed on a JEOL JEM-1011 operated at 100 kV electron microscope, equipped with a camera S5 MegaView G2. A drop of a solution of polyplexes (0.1 mg/mL) was settled on a PELCO® TEM carbon type-B film copper grid and allowed to dry at room temperature for 1 h. Infrared Spectroscopy: FT-IR spectra were recorded on a Bruker Vertex 70v, equipped with a RockSolid interferometer, after preparing the samples (1-2 mg) as KBr pellets. Spectra were processed using OPUS 7.8 software (Bruker). NMR Spectroscopy: 1H NMR spectra were recorded on a 11.7 T Bruker DRX-500 spectrometer. Chemical shifts are reported in ppm (o units) downfield from the HOD residual solvent peak (CD3OD). Experiments were recorded acquiring 64-512 scans, with a pre-scan delay (d1) of 12 s, and an acquisition time (aq) of 4 s at 300 K. 13C NMR spectrum was recorder on a 9.39 T Varian Innova 400 spectrometer. MestReNova 14.2 software (Mestrelab Research) was used for spectra processing. Cell culture conditions and treatments: HEK293FT, A431, A2058, Neuro2A, Hepa1-6 and MDA-MB 468 were maintained in 10% FBS-supplemented DMEM medium (PAN-Biotech GmbH, or Lonza Group, Basel, Switzerland)+Pen/Strep at 37° C. with 5% CO2. […]

CC(=O)OC1C(C)OC(OC2C(C)OC(OC(=O)[C@]34CCC(C)(C)CC3C3=CCC5[C@@]6(C)CC[C@H](OC7OC(C(=O)O)C(O)C(OC8OCC(O)C(O)C8O)C7OC7OC(CO)C(O)C(O)C7O)[C@@](C)(/C=N/NC(=O)CCCCCN7C(=O)C=CC7=O)C6CC[C@@]5(C)[C@]3(C)C[C@H]4O)C(OC3OC(C)C(OC4OCC(O)C(OC5OC(CO)C(O)C(O)C5O)C4O)C(O)C3O)C2O)C(O)C1OC1OCC(O)C(O)C1O (stereo partly drawn) [SO1861-EMCH]
pEGFP-N3 transfection (GFP expression) (40 pM or 120 pM pEGFP-N3, N/P 8, SO1861-EMCH = 4000 nM co-administered with PAMAM G5-(PEG N3)3.5 polyplexes): nearly all cells were transfected
toxicity (cell confluency) (40 pM or 120 pM pEGFP-N3 polyplexes, N/P 8, SO1861-EMCH = 4000 nM co-administered with PAMAM G5-(PEG N3)3.5 polyplexes): strong toxicity was observed
toxicity of SO1861-EMCH alone (4000 nM, without polyplex (data not shown)): not toxic

Reference: US20260077055A1, “COMPOSITIONS OF POLYPLEXES AND SAPONINS” (SAPREME TECHNOLOGIES B.V., priority 2022, published 2026)
